Measurements: patent publication US20140073611A1, “METHODS FOR DRUG SCREEN USING ZEBRAFISH MODEL AND THE COMPOUNDS SCREENED THEREFROM” (National Taiwan University, priority 2012, published 2014)
Counter-ions that a name gives are not always drawn.

Assays:
[1] = system: zLum-MO-injected fish; details: in vivo zebrafish larvae assays; prior reference Yeh et al., J Biol Chem 2010; cited from earlier work
[2] = system: lumican, collagen 1a1, TGF-beta, MMP2 and TIMP2; assay: Expression patterns in atropine-treated zLum knockdown morphant (FIG. 9); format: in vivo, zebrafish
Protocol: FIG. 9 depicts atropine rescues zLum knockdown morphant.
(§1) Morpholino is resuspended in sterile water to a concentration of 1 mmol/L and diluted to […] with sterile water. The morpholinos are injected at the single-cell stage in a volume of 0.0023 nL. Here, we identified the effects of morpholinos on protein levels are assayed with western blotting from injected embryos with GAPDH as a control.
We used several antibodies to evaluate the effects of lumican knockdown and all can be obtained from different commercial supplies. Rabbit anti-TGFβ2, Rabbit anti-MMP-2, Goat anti-TIMP-2, Goat anti-Col1a1 (L-19) and Goat anti-PDI are obtained from Santa Cruz. Mouse anti-GAPDH is obtained from Abnova.

[3] = system: zLum-MO-injected fish; assay: Eye morphometry and phenotype of zLum-MO-injected fish after muscarinic antagonist treatment (FIGS. 7-8); format: in vivo, zebrafish; details: for diameter of the scleral coat / excessive axial elongation: zLum-MO-injected fish at 7 dpf, FIG. 7(C); for diameter of the scleral coat / excessive axial elongation / ratio of RPE/scleral coat (%): 0.5% atropine, 0.25% pirenzepine; for diameter of the scleral coat / excessive axial elongation / ratio of RPE/scleral coat (%) / ocular enlargement (phenotype): 0.01% methoctramine; for ratio of RPE/scleral coat (%): zLum-MO-injected fish, FIG. 7(D); for ocular enlargement (phenotype): zLum-MO-injected larvae at 7 dpf, 0.5% atropine for 2 days, 0.25% pirenzepine for 2 days, FIG. 8
From the text: FIGS. 7(A)-(D) depict a zebrafish drug screen assay. FIGS. 7(A) and (B) illustrate and define the outer margin of the retinal pigmented epithelium layer (RPE(red color)) and the diameter of the scleral coat (D(green color)) in zebrafish.
(§2) Big eye in a zebrafish is an indicator of myopia. As used herein, a “big eye” refers to an eye with an enlarged axial length of eyeball and denotes the value of the axial length of the retinal pigmented epithelium layer divided by the axial length of the scleral coat less than 0.7. The axial length of a retinal pigmented epithelium layer and the axial length of a scleral coat can be measured by any method known in the art—for example, dissecting microscopy.
Morpholinos are chemically modified antisense oligonucleotides that can be designed to hybridize to the translation-initiation or splicing acceptor/donor sites of specific mRNAs (Nasevicius A, Ekker S C. Effective targeted gene ‘knockdown’ in zebrafish. Nat Genet 2000; 26(2):216-20). A morpholino-antisense oligonucleotide (Gene Tools, Philomath, Oreg.) are designed and synthesized to target the 5′-untranslated and/or flanking regions, including the translation start codon of the respective genes. The MO sequence is designed as follows: zLum-MO, 5′-[…]-3′. This oligonucleotide complemented the sequence from −8 through +17 with respect to the translation initiation codon. A random sequence MO (RS-MO) serves as a control for zLum-MO: 5′-[…]-3′. This RS-MO is obtained from Gene Tools as a standard control oligonucleotide with no target specificity (Yeh L K, Liu C Y, Kao W W, et al. Knockdown of zebrafish lumican gene (zlum) causes scleral thinning and increased size of scleral coats. J Biol Chem 2010; 285(36):28141-55).
as §1

[4] = system: lumican knockdown zebrafish (zLum-MO); assay: Drug screen in lumican (zLum-MO) knockdown zebrafish: big eye ratio / scleral coat enlargement; format: in vivo; details: for % of scleral enlargement in experimental group: zLum-MO knockdown model, vs. 30% of scleral enlargement in control group; for outcome of the screen of about 30 drugs: lumican knockdown zebrafish model
Protocol: The term “big eye” denotes that an eye with a value of the axial length of the retinal pigmented epithelium layer divided by the axial length of the scleral coat is less than 0.7.
According to the disclosure, the knockdown zebrafish are exposed to a test compound at the optic cup formation stage thereof. Generally, at around 24 hours after fertilization, the optic cup of zebrafish is formed. The knockdown zebrafish can be exposed to the test compound at the optic cup formation stage. After contacting the knockdown zebrafish with the test compound, the test compound, if it is a potential candidate, may start to activate the expression of lumican and collagen fibrillogenesis, thereby decreasing the enlargement of eyeball and treating and/or preventing myopia and/or keratoconus disease. Retina lenses are established around 48 hours after fertilization, and the sclera and cornea are established around 72 hours after fertilization. At sclera and cornea establishment stage, the zebrafish are collected.
as §2
The test compound can be identified as a candidate compound affecting the expression of lumican and/or collagen fibrillogenesis and/or regulation of eyeball size, and/or treating and/or preventing myopia and/or keratoconus disease if the ratio of the number of big eyes decreases relative to the total number of eyes in zebrafish or that of big eyes in control zebrafish that is not contacted with the test compound. […] Preferably, the ratio is less than 15%. More preferably, the ratio decreases to about 0% to about 30%, about 0% to about 25%, about 0% to about 20%, about 0% to about 15%, about 0% to about 10%, about 1% to about 30%, about 1% to about 25%, about 1% to about 20% or about 1% to about 15%.
Zebrafish are raised and maintained according to previously established protocols (Soules K A, Link B A. Morphogenesis of the anterior segment in the zebrafish eye. BMC Dev Biol 2005; 5:12). All experiments are performed on Tuebingen AB zebrafish raised at 28° C. on a 14-h light and 10-h dark cycle and maintained using standard methods. Embryos are staged according to morphological criteria (somite number) (Kimmel C B, Ballard W W, Kimmel S R, et al. Stages of embryonic development of the zebrafish. Dev Dyn 1995; 203(3):253-310) and timed in hours after fertilization. Embryos are generated by natural pair-wise mating, as described in the zebrafish handbook (Westerfield M. The Zebrafish Book; A Guide for the Laboratory Use of Zebrafish (Brachydanio rerio). University of Oregon Press, Eugene, 2nd edition 300P., 1993). For each mating, 4±5 pairs are set up and, on an average; 100±150 embryos per pair are generated. The zebrafish embryo is optically transparent, making it possible to detect functional and morphological changes in internal organs without having to kill or dissect the organism. Chorions are removed manually with Dumont Watchmaker's Forceps No. 5.
Morpholinos are chemically modified antisense oligonucleotides that can be designed to hybridize to the translation-initiation or splicing acceptor/donor sites of specific mRNAs (Nasevicius A, Ekker S C. Effective targeted gene ‘knockdown’ in zebrafish. Nat Genet 2000; 26(2):216-20). A morpholino-antisense oligonucleotide (Gene Tools, Philomath, Oreg.) are designed and synthesized to target the 5′-untranslated and/or flanking regions, including the translation start codon of the respective genes. The MO sequence is designed as follows: zLum-MO, 5′-[…]-3′.

Structure (SMILES): CN1[C@@H]2CC[C@H]1C[C@@H](OC(=O)C(CO)c1ccccc1)C2 (some centres unmarked) [Atropine]
- ocular enlargement caused by morpholinos [1]: effectively subdued the ocular enlargement
- expression of MMP-2 and TIMP ([2]; lumican knockdown fish, atropine treatment): returned to the normal level
- expressions of lumican, collagen 1a1, TGF-beta, MMP2 and TIMP2 in lumican morphant ([2]; zLum knockdown morphant treated with atropine, FIG. 9): reverse the expressions
- scleral coat enlargement ([3]; lumican knockdown fish, administration of atropine, FIGS. 7 to 9): could be inhibited
- diameter of the scleral coat [3]: Significant decreases
- excessive axial elongation [3]: significant decreases
- ratio of RPE/scleral coat (%) [3]: attenuate the decreasing ratio
- ocular enlargement (phenotype) [3]: significant decreases in ocular enlargement

Structure (SMILES): CN1CCN(CC(=O)N2c3ccccc3C(=O)Nc3cccnc32)CC1 [Pirenzepine dihydrochloride]
- ocular enlargement caused by morpholinos [1]: effectively subdued the ocular enlargement
- diameter of the scleral coat [3]: Significant decreases
- excessive axial elongation [3]: significant decreases
- ratio of RPE/scleral coat (%) [3]: attenuate the decreasing ratio
- ocular enlargement (phenotype) [3]: decreases in ocular enlargement

Structure (SMILES): CN(C)c1ccc(O)c2c1C[C@H]1C[C@H]3[C@H](N(C)C)C(O)=C(C(N)=O)C(=O)[C@@]3(O)C(O)=C1C2=O [Minocycline hydrochloride]
- % of scleral enlargement in experimental group [4]: 4.7%

Structure (SMILES): CC(=O)N[C@@H](CS)C(=O)O [n-acetylcysteine]
- outcome of the screen of about 30 drugs [4]: effective candidate compounds
- % of scleral enlargement in experimental group [4]: 11.7%

Structure (SMILES): COc1ccccc1CNCCCCCCNCCCCCCCCNCCCCCCNCc1ccccc1OC [methoctramine]
- diameter of the scleral coat [3]: no obvious changes
- excessive axial elongation [3]: no obvious changes
- ratio of RPE/scleral coat (%) [3]: no obvious changes
- ocular enlargement (phenotype) [3]: no obvious changes in the phenotypes

Structure (SMILES): CNC(=O)[C@@H](NC(=O)[C@H](CC(C)C)[C@H](O)C(=O)NO)C(C)(C)C [Marimastat]
- outcome of the screen of about 30 drugs [4]: effective candidate compounds
- % of scleral enlargement in experimental group [4]: 2%

Structure (SMILES): CC(=O)Oc1ccccc1C(=O)O [Aspirin]
- outcome of the screen of about 30 drugs [4]: effective candidate compounds
- % of scleral enlargement in experimental group [4]: 9.6%

Structure (SMILES): C[C@H](CS)C(=O)N1CCC[C@H]1C(=O)O [Captopril]
- outcome of the screen of about 30 drugs [4]: effective candidate compounds

Structure (SMILES): CC(C)c1cccc(C(C)C)c1O [Propofol, 2,6-diisopropylphenol]
- outcome of the screen of about 30 drugs [4]: effective candidate compounds
- % of scleral enlargement in experimental group [4]: 12%

Structure (SMILES): C[C@H]1c2cccc(O)c2C(=O)C2=C(O)[C@]3(O)C(=O)C(C(N)=O)=C(O)[C@@H](N(C)C)[C@@H]3[C@@H](O)[C@@H]21 [Doxycycline hyclate]
- % of scleral enlargement in experimental group [4]: 6.8%

Structure (SMILES): CC(C)[N+]1(C)[C@@H]2CC[C@H]1CC(OC(=O)C(CO)c1ccccc1)C2.[Br-] (some centres unmarked) [Ipratropium bromide]
- Big eye rate(%) ([4]; lumican knockdown zebrafish, big eye = RPE/scleral coat axial length < 0.7, Conc.: Atropine 0.50%, Tropicamide 1 mM, Ipratropium 50 mM, Oxybutynin 2 uM, Scopolamine 100 uM, Pirenzepine 0.25%, SB 431542 25 uM, Tamoxifen 20 uM, Doxycycline 100 ppm, Genistein 25 uM, Marimastat 50 uM, Taurine 0.2M, Minocycline 50 uM, n-acetylcysteine 10 uM, Aspirin 50 mg/L, Propofol 0.5 mM, SP600125 2.5 uM, Zileuton 1): 26.0%
